Like-named read-outs stand apart in the source and are kept apart here.

For assay [1], the system named is IgG fraction of antiserum raised to Immunogen VIII. Format: binding, sheep.
Assay [2] deals with IgG fraction of antiserum raised to Immunogen II. The assay can be described thus: Competitive ELISA, antibody RS1833B12 to Immunogen II, tracer ESC4555 (Example 36). Type of assay: binding, sheep.
Where [3] appears, read: Antibody to Immunogen VIII, cross-reactants at 100 ng/ml, 1000 ng/ml, standard JWH-018.
The mark [4] stands for this setting: Antibody to Immunogen II, cross-reactants at 100 ng/ml, 1000 ng/ml, standard JWH-018.

`CCCCCn1cc(C(=O)c2cccc3ccccc23)c2ccccc21` [JWH-018]: the “% B/B0” value in assay [1] (setting [3]) is listed as 17.66%; in assay [1] (JWH-018 1 ng/ml) it was 79%; in assay [1] (JWH-018 3 ng/ml), 63%; in assay [1] (JWH-018 5 ng/ml), 51%; in assay [1] (JWH-018 10 ng/ml) it was 40%; in assay [1] (JWH-018 20 ng/ml), 29%. In addition, the “% B/B0” value in assay [1] (JWH-018 40 ng/ml) worked out at 22%; in assay [1] (JWH-018 80 ng/ml), 16%; in assay [2] (setting [4]), 9.29%; in assay [2] (JWH-018 0.625 ng/ml) it was 68%; in assay [2] (JWH-018 1.25 ng/ml) it was 53%; in assay [2] (JWH-018 2.5 ng/ml) it was 34%. For the same compound, the “% B/B0” value is 25% in assay [2] (JWH-018 5 ng/ml), 17% in assay [2] (JWH-018 10 ng/ml), 13% in assay [2] (JWH-018 20 ng/ml) and 10% in assay [2] (JWH-018 40 ng/ml). Further, the IC50 in assay [1] (Table 9 standard curve, standard concentration which produces 50% B/B0) was found to be 5.230 ng/mL; in assay [2] (Table 7 standard curve, standard concentration which produces 50% B/B0), 1.333 ng/mL.

Consider `CCCCn1cc(C(=O)c2cccc3ccccc23)c2ccccc21` [JWH-073], for which the “% B/B0” value in assay [1] (setting [3]) is given as 25.50%; in assay [2] (setting [4]), 15.24%.

Turning to `O=C(O)CCCCn1cc(C(=O)c2cccc3ccccc23)c2ccccc21` [JWH-018 N-pentanoic acid metabolite], the “% B/B0” value in assay [1] (setting [3]) came out at 100.31%; in assay [2] (setting [4]), 85.61%.

For `O=C(c1cccc2ccccc12)c1cn(CCCCCF)c2ccccc12` [AM-2201, 1-(5-Fluoropentyl)indol-3-yl (1-naphthyl) methanone], the results for the “% B/B0” value in assay [1] (setting [3]) and in assay [2] (setting [4]) were 16.74% and 11.72%, respectively.

For the compound `CCCCCn1cc(C(=O)c2ccc(Cl)c3ccccc23)c2ccccc21` [JWH-398], the entries for the “% B/B0” value in assay [1] (setting [3]) and in assay [2] (setting [4]) were 18.66% and 30.31%, respectively.

Take `CCCCCn1cc(C(=O)c2cccc3ccccc23)c2c(O)cccc21` [4-OH JWH-018, JWH-018 4-hydroxyindole metabolite]: the “% B/B0” value turned out to be 16.72% in assay [1] (setting [3]) and 29.49% in assay [2] (setting [4]).

Consider `CCCCCn1cc(C(=O)c2cccc3ccccc23)c2ccc(O)cc21` [6-OH JWH-018, JWH-018 6-hydroxyindole metabolite], for which the entries for the “% B/B0” value in assay [1] (setting [3]) and in assay [2] (setting [4]) were 89.86% and 24.39%, respectively.

In the case of `CCCCCn1cc(C(=O)c2cccc3ccccc23)c2cc(O)ccc21` [5-OH JWH-018, JWH-018 5-hydroxyindole metabolite], the “% B/B0” value in assay [1] (setting [3]) was 87.67%; in assay [2] (setting [4]), 12.14%.

As for `O=C(c1cccc2ccccc12)c1c[nH]c2ccccc12` [N-desalkyl JWH-018, 3-(1-naphthoyl)-1H-Indole], the “% B/B0” value in assay [1] (setting [3]) is reported as 90.49%; in assay [2] (setting [4]), 99.18%.

As for `O=C(c1cccc2ccccc12)c1cn(CCCCCO)c2ccccc12` [JWH-018 N-(5-hydroxypentyl) metabolite], the “% B/B0” value came to 57.37% in assay [1] (setting [3]) and 53.38% in assay [2] (setting [4]).

As for `O=C(c1cccc2ccccc12)c1cn(CCN2CCOCC2)c2ccccc12` [JWH-200], the “% B/B0” value stood at 98.81% in assay [1] (setting [3]) and 54.02% in assay [2] (setting [4]).

The record behind these values is patent US9434687B2, “Detection of synthetic cannabinoids” (priority 2011, dated 2016).
